Test system: IL-1α
Assay: Serum cytokine analysis, multiplex ELISA
Type: in vivo, mouse
Details: serum collected weekly; compared to Injury and mGRPs groups
Method: Samples were collected every week, starting from day of graft transplantation (day 0), 100 μl of blood from mouse tail. Blood was stored 1 h in room temperature, and overnight in +4° C. Serum was gently aspirated, and centrifuged 10 min with 2000 RPM to separate blood morphotic bodies. Purified serum was stored in −80° C. until further analysis. Multiplex ELISA 23-cytokine kit (M60009RDPD) was obtained from Bio-Rad (Bio-Plex Pro Mouse Cytokine 23-plex Assay #M60009RDPD, Hercules, Bio-Rad, CA, USA, RRID: AB_2857368) and performed according to instructions. 50 μl of diluted in sample diluent, 1:4 serum samples and diluted at range 1:10-1:20. Measurement standards were used, diluted 9 times according to the protocol and added at template plate. Vortexed beads were added to the assay 96-well plate. Plate was again washed 3 times with wash buffer, then from template plate, 50 μl of samples, standards and blank were transferred to measurement plate with multichannel pipette. Plate was sealed with tape and incubated 30 min. After this time, plate was washed 3 times. 25 μl of detection antibody was added to the wells with multichannel pipette. Plate was sealed and incubated for 30 min. and next washed 3 times using wash buffer. […] Beads were resuspended with 125 μl of assay buffer and analysis was performed with Bio Plex 200 reader.
All quantifications were performed including the manual cell counts in a blinded manner. The NeuN and Ibal were counted as positive cells in the ROI (see above) as previously reported. The number of cells was determined by unbiased counting of positive cells. […] Differences between groups were analyzed using a repeated measure ANOVA model with a fixed effect for the group, of the time and a random intercept for the mouse. In a second, more explorative, approach for each group the time when the physical activity was first measured below a certain threshold was determined. […] The clinically relevant threshold was determined according to previous observations and defined as value 0.9 for the Wire Test. […] The statistical significance at p<0.05 was then determined.

C=CC[C@@H]1/C=C(\C)C[C@H](C)C[C@H](OC)[C@H]2O[C@@](O)(C(=O)C(=O)N3CCCC[C@H]3C(=O)O[C@H](/C(C)=C/[C@@H]3CC[C@@H](O)[C@H](OC)C3)[C@H](C)[C@@H](O)CC1=O)[C@H](C)C[C@@H]2OC [Tac, Tacrolimus, reference compound]
peripheral IL-1α cytokine peak: decreased IL-1α peak significantly

Reference: US20250170212A1, “COMPOSITIONS AND METHODS OF TREATING AMYOTROPHIC LATERAL SCLEROSIS (ALS) AND RELATED DISORDERS” (BIOINCEPT, LLC, priority 2022, published 2025)
